Test results published in patent US5856333A, “Substituted camptothecin derivatives and process for their preparation” (Pharmacia & Upjohn S.p.A., priority 1995, dated 1999).
In brackets after ≈: the same amount, converted by molar mass.

Assays:
human albumin = conditions: biologically relevant levels of human albumin; cited from earlier work
[1] = human plasma, 2 hours after drug addition; cited from earlier work
cancer cells = conditions: both in vitro and in vivo; cited from earlier work
Topoisomerase I = conditions: cited from earlier work
[2] = system: L1210 murine leukemia cells; assay: evaluation of cytotoxic activity, method (a); format: cell-based; conditions: Mus musculus, 48 h at 37° C., 5% CO2, dose causing 50% inhibition of cell growth relative to untreated controls, 0.5% DMSO
Experimental: As an example, the activity of (E)-9-(2-methoxycarbonyl-ethenyl) camptothecin (internal code FCE 28681) and 9-(2-methoxycarbonyl-ethyl) camptothecin (internal code FCE 29559) were tested according to the following method (a).
The compounds were dissolved in dimethylsulfoxide (DMSO) at a final concentration of 0.5%.
Method (a): evaluation of cytotoxic activity
L1210 murine leukemia cells were grown in vitro as a floated cells in RPMI 1640 medium supplemented with 10% fetal calf serum, 1% L-glutamine 200 mM, 1% of B-mercaptoethanol 1 mM, 100 UI/ml penicillin and 100 μg streptomycin. For assaying the cytotoxic activity, exponentially growing cells were seeded at the concentration of 5×10^4 cells/ml and exposed to graded doses of the compounds under evaluation for 48 h at 37° C. in an humidified atmosphere of 5% CO2. The number of surviving cells was determined with a Coulter Counter; results are expressed as IC50 (dose causing 50% inhibition of cell growth in treated cultures relative to untreated controls after 48 h treatment) in this assay, (E)-9-(2-methoxycarbonyl-ethenyl) camptothecin (internal code FCE 28681) and 9-(2-methoxycarbonyl-ethyl) camptothecin (internal code FCE 29559) were tested and the obtained results are reported on Table 1 below.

| SMILES | half-life of the biologically active form (human albumin) | percentage of drug converted to camptothecin carboxylate [1] | anticancer activity of the lactone versus the carboxylate form (cancer cells) | antitumor activity by inhibition of Topoisomerase I (Topoisomerase I) | IC50 [2] |
| --- | --- | --- | --- | --- | --- |
| CC[C@@]1(O)C(=O)OCc2c1cc1n(c2=O)Cc2cc3ccccc3nc2-1 [camptothecin] | about 12 min. | greater than 99% | significantly greater for the lactone versus the carboxylate form | potent antitumor activity | – |
| CC[C@@]1(O)C(=O)OCc2c1cc1n(c2=O)Cc2cc3c(/C=C/C(=O)OC)cccc3nc2-1 [FCE 28681, (E)-9-(2-methoxycarbonyl-ethenyl)camptothecin] | – | – | – | – | 3.3 ± 1.8 ng/mL (≈ 7.63 nM) |
| CC[C@@]1(O)C(=O)OCc2c1cc1n(c2=O)Cc2cc3c(CCC(=O)OC)cccc3nc2-1 [FCE 29559, 9-(2-methoxycarbonyl-ethyl)camptothecin] | – | – | – | – | 2.7 ± 0.5 ng/mL (≈ 6.21 nM) |
